Source: DBAASP
Values after ≈ are worked out from the molar mass of the structure shown.

How the values were obtained:
Experiment in all cases: ≥ marks a high value that may be exact or a test limit, other limits are often not marked, values filed in µg/mL are converted to µM
[1] = system: Enterobacter cloacae beta-12
[2] = system: Staphylococcus aureus ATCC 25923
Escherichia coli BL21 = system: Escherichia coli BL21
[3] = system: Enterococcus faecalis ATCC 29212
Pseudomonas aeruginosa = system: Pseudomonas aeruginosa
[4] = system: Staphylococcus aureus K35
[5] = system: Staphylococcus aureus K52
[6] = system: Staphylococcus epidermidis ATCC 12228
[7] = system: Pseudomonas aeruginosa PA14
Enterococcus faecium = system: Enterococcus faecium
[8] = system: Staphylococcus aureus ATCC 29313
[9] = system: Xanthomonas axonopodis pv. glycines ISBF 327
[10] = system: Staphylococcus aureus ATCC 33591
[11] = system: Acinetobacter baumannii ATCC BAA-1605
[12] = system: Escherichia coli ATCC 43827
[13] = system: Pseudomonas aeruginosa ATCC 9027
[14] = system: Pseudomonas aeruginosa ATCC 27853
[15] = system: Escherichia coli K12 MG1655
[16] = system: Staphylococcus aureus 68 HER 1049
[17] = system: Pseudomonas aeruginosa ATCC 10419
[18] = system: Pseudomonas aeruginosa LCGE
[19] = system: Pseudomonas aeruginosa LC
[20] = system: Salmonella enterica subsp. enterica serovar Typhimurium C77-31
[21] = system: Pseudomonas aeruginosa ATCC 21625
[22] = system: Pseudomonas aeruginosa LCCI
[23] = system: Pseudomonas aeruginosa ATCC 21630
[24] = system: Escherichia coli ATCC 25922
[25] = system: Pseudomonas aeruginosa LCCE
[26] = system: Staphylococcus aureus ATCC 29213
Bacillus subtilis PS832 = system: Bacillus subtilis PS832
Escherichia coli MG1655 = system: Escherichia coli MG1655

`CC[C@H](C)[C@H](NC(=O)CNC(=O)[C@H](CO)NC(=O)[C@H](CC(C)C)NC(=O)[C@@H](NC(=O)[C@H](CCCCN)NC(=O)CNC(=O)[C@@H](NC(=O)[C@H](CC(C)C)NC(=O)[C@@H]1CCCN1C(=O)[C@H](CC(C)C)NC(=O)[C@@H](N)Cc1ccccc1)[C@@H](C)CC)C(C)C)C(=O)N[C@@H](CC(C)C)C(N)=O` [FLPLIGKVLSGIL] showed an MIC [1] of at least 128 µM, an MIC [2] of 5.2 µM (≈ 7.12 µg/mL) and an MIC (Escherichia coli BL21) of at least 64 µM. For the same molecule, the MIC [3] was 20.9 µM (≈ 28.6 µg/mL), the MIC (Pseudomonas aeruginosa) was over 64 µM and the MIC [4] was 4.4 µM (≈ 6.02 µg/mL). The MIC [5] was 4.4 µM (≈ 6.02 µg/mL), the MIC [6] was at least 128 µM and the MIC [7] was at least 128 µM. It also gave an MIC (Enterococcus faecium) of 17.5 µM (≈ 24 µg/mL).
Molecule `CC[C@H](C)[C@H](NC(=O)[C@H](CCCCN)NC(=O)[C@H](CC(N)=O)NC(=O)[C@@H](NC(=O)[C@@H](NC(=O)[C@H](CCCCN)NC(=O)[C@@H](NC(=O)[C@H](C)NC(=O)[C@@H](NC(=O)[C@H](Cc1cnc[nH]1)NC(=O)CNC(=O)[C@H](C)NC(=O)[C@H](CC(C)C)NC(=O)[C@H](CC(=O)O)NC(=O)[C@H](CCCCN)NC(=O)[C@H](C)NC(=O)[C@H](C)NC(=O)CNC(=O)[C@H](CCCCN)NC(=O)[C@H](CC(C)C)NC(=O)[C@@H](NC(=O)[C@H](CC(=O)O)NC(=O)[C@H](CC(C)C)NC(=O)[C@@H](NC(=O)CN)C(C)C)[C@@H](C)CC)C(C)C)[C@@H](C)O)C(C)C)[C@@H](C)CC)C(N)=O` [GVLDILKGAAKDLAGHVATKVINKI] has an MIC [8] of at least 50 µM, an MIC [9] of 25 µM (≈ 63.6 µg/mL) and an MIC [10] of at least 201 µM. The MIC [11] was at least 50.3 µM, the MIC [12] was at least 201 µM and the MIC [13] was over 201 µM. It also gave an MIC [14] of 100 µM (≈ 254 µg/mL).
`CC[C@H](C)[C@H](NC(=O)[C@H](CC(C)C)NC(=O)[C@H](CCCN=C(N)N)NC(=O)[C@H](Cc1c[nH]c2ccccc12)NC(=O)CN)C(=O)N[C@@H](CCCCN)C(=O)N[C@@H](CCCCN)C(=O)N[C@H](C(=O)N[C@@H](CC(C)C)C(=O)N[C@@H](CCCN=C(N)N)C(=O)N[C@H](C(=O)N[C@@H](Cc1ccccc1)C(=O)N[C@@H](CCCCN)C(=O)NCC(=O)N[C@@H](CC(C)C)C(=O)O)C(C)C)[C@@H](C)CC` [GWRLIKKILRVFKGL] was tested, and the MIC [15] was 2.19 µM (≈ 4 µg/mL) and the MIC [16] was 2.19 µM (≈ 4 µg/mL).
Molecule `CC[C@H](C)[C@H](NC(=O)[C@H](CCCCN)NC(=O)[C@H](CCCCN)NC(=O)[C@H](CC(C)C)NC(=O)[C@H](CCCN=C(N)N)NC(=O)[C@H](CCCCN)NC(=O)[C@H](CCCN=C(N)N)NC(=O)[C@H](Cc1c[nH]c2ccccc12)NC(=O)[C@H](CCCCN)NC(=O)[C@H](CCCCN)NC(=O)[C@H](CCCN=C(N)N)NC(=O)[C@H](CC(C)C)NC(=O)[C@H](CCCN=C(N)N)NC(=O)[C@H](CCCN=C(N)N)NC(=O)[C@H](Cc1ccccc1)NC(=O)[C@@H](N)CCCN=C(N)N)C(N)=O` [RFRRLRKKWRKRLKKI] has an MIC [17] of 4 µM (≈ 9.07 µg/mL), an MIC [18] of 4 µM (≈ 9.07 µg/mL) and an MIC [19] of 1 µM (≈ 2.27 µg/mL). It also gave an MIC [20] of at least 128 µM, an MIC [21] of 4 µM (≈ 9.07 µg/mL) and an MIC [22] of 2 µM (≈ 4.54 µg/mL). It also gave an MIC [23] of 4 µM (≈ 9.07 µg/mL), an MIC [6] of 64 µM (≈ 145 µg/mL) and an MIC [24] of 64 µM (≈ 145 µg/mL). The MIC [25] was 4 µM (≈ 9.07 µg/mL) and the MIC [26] was 128 µM (≈ 290 µg/mL).
In the case of `CC[C@H](C)[C@H](NC(=O)[C@H](CCCN=C(N)N)NC(=O)[C@H](CCCCN)NC(=O)[C@H](CC(C)C)NC(=O)[C@H](CC(C)C)NC(=O)CNC(=O)[C@H](Cc1cnc[nH]1)NC(=O)[C@@H](NC(=O)[C@@H](N)CCCN=C(N)N)[C@@H](C)O)C(=O)N[C@@H](CCCCN)C(=O)N[C@H](C(=O)N[C@@H](CC(C)C)C(=O)N[C@@H](CC(C)C)C(N)=O)[C@@H](C)O` [RTHGLLKRIKTLL], the MIC (Bacillus subtilis PS832) is reported as 4 µM (≈ 6.19 µg/mL) and the MIC (Escherichia coli MG1655) is reported as 8 µM (≈ 12.4 µg/mL).
